Measurements as given in patent US11999727B2 (Tango Therapeutics, Inc., priority 2020, dated 2024).

Tests used:
[1] = molecular target: T1, PRMT5 (Homo sapiens, UniProt O14744); assay: PRMT5 biochemical IC50 assay with no cofactor; details: PRMT5, no cofactor; read-out: No Cofactor/rel IC50
T1 construct: purchased Viva (custom protein)
From the text: Table 1 indicates IC50 values (μM) against PRMT5 for exemplary compounds in the presence of SAM as cofactor, with no cofactor, and with MTA as cofactor, respectively (columns 4-6). […] Ki values can be calculated from the IC50 values as described in the Examples section. As detailed in the Examples section, for the assay performed in the presence of SAM, IC50=Ki×1.5 (Ki=IC50/1.5).

[2] = test system: HAP1 MTAP-deleted cell line; assay: SDMA in-cell western assay, HAP1 MTAP-deleted; assay type: cell-based; details: for IC50: Homo sapiens, HAP1, SDMA in-cell western, HAP1 MTAP-deleted, read-out: HAP 1 MTAP deleted IC50; for MTAP intact/deleted ratio: IC50 ratio HAP1 MTAP-intact / HAP1 MTAP-deleted, SDMA in-cell western
Procedure, shortened: (§1)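 Readout: in-cell western detection of SDMA. Cells: HAP1 expressing endogenous MTAP and an MTAP-null HAP1 counterpart. Output: IC50.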

[3] = molecular target: T1, PRMT5; assay: PRMT5 biochemical IC50 assay with MTA as cofactor; details: PRMT5, MTA as cofactor; read-out: MTA IC50
[4] = test system: HAP1 MTAP-intact cell line; assay: SDMA in-cell western assay, HAP1 MTAP-intact; assay type: cell-based; details: Homo sapiens, HAP1, SDMA in-cell western, HAP1 MTAP-intact; read-out: MTAP HAP1 intact IC50
Procedure, shortened: as §1

[5] = test system: HAP1 MTAP-deleted cell line; assay: Viability assay, MTAP-deleted cell line; assay type: cell-based; details: Homo sapiens, HAP1, viability assay, MTAP-deleted cell line; read-out: HAP1 MTAP deleted viability
From the text: Table 1 additionally indicates IC50 values in a viability assay for the MTAP-deleted cell line (column 10), indicating the effect of treatment with compound on cell survival.

[6] = molecular target: T1, PRMT5; assay: PRMT5 biochemical IC50 assay with SAM as cofactor; details: PRMT5, SAM as cofactor; read-out: SAM IC50

T1 sequence (O14744 whole entry): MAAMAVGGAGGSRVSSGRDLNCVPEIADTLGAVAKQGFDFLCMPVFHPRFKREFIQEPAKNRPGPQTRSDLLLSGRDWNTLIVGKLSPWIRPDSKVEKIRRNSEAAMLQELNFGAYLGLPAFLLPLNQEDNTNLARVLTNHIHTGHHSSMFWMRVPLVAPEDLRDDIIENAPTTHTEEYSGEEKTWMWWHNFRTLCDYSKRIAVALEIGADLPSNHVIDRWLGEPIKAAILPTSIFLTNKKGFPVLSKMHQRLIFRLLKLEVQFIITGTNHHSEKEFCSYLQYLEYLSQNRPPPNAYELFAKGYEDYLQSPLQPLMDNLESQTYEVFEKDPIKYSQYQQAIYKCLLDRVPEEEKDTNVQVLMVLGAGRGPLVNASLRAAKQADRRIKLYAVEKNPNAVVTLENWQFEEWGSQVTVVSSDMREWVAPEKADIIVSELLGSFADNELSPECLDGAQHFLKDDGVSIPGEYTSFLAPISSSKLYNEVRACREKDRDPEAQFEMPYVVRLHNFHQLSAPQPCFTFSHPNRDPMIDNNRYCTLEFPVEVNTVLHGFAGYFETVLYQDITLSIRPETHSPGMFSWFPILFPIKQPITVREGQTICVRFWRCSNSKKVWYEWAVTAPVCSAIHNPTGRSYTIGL
T1 sequence (Q9BQA1 whole entry partner): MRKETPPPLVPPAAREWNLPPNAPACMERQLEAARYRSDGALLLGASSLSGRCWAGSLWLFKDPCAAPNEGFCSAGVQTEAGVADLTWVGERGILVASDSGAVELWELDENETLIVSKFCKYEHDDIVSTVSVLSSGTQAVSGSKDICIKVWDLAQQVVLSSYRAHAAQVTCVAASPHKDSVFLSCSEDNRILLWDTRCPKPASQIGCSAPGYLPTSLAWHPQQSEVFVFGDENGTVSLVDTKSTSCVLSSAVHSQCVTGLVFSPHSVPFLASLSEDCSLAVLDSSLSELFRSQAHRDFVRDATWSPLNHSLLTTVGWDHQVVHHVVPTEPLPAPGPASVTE

`C[C@H]1CC[C@H](c2cc[nH]n2)N(C(=O)C(=O)Nc2cncc(C(N)=O)c2)C1` (single isomer, unassigned) [Compound 978] was tested, and the IC50 [1] was 50 to 500 nM, the IC50 [2] was greater than 1000 nM and the MTAP intact/deleted ratio [2] was “C (an IC50 ratio of less than 3 fold)”. For the same compound, the IC50 [3] was 50 to 500 nM, the IC50 [4] was greater than 1000 nM and the IC50 [5] was greater than 10000 nM. The IC50 [6] was greater than 500 nM.
`Cc1cc(NC(=O)C(=O)N2C[C@H](C)CC[C@H]2c2ccc(NS(C)(=O)=O)nc2)cnc1N` (single isomer, unassigned) [Compound 980] was tested, and the IC50 [1] was 50 to 500 nM, the IC50 [2] was greater than 1000 nM and the MTAP intact/deleted ratio [2] was “B (an IC50 ratio greater than or equal to 3 fold but lower than 10 fold)”. The IC50 [3] was 50 to 500 nM, the IC50 [4] was greater than 1000 nM and the IC50 [5] was greater than 10000 nM. The IC50 [6] was 50 to 500 nM.
With `COc1ncc(NC(=O)C(=O)N2C[C@H](C)CC[C@H]2c2ccc(NS(C)(=O)=O)nc2)cc1C(N)=O` (single isomer, unassigned) [Compound 986] the IC50 [1] was 50 to 500 nM, the IC50 [2] was 100 to 1000 nM and the MTAP intact/deleted ratio [2] was “A (an IC50 ratio greater than or equal to 10 fold)”. The IC50 [3] was less than 50 nM, the IC50 [4] was greater than 1000 nM and the IC50 [5] was 1000 to 10000 nM. The IC50 [6] was greater than 500 nM.
In the case of `Cc1cc(NC(=O)C(=O)N2C[C@@H](C)CC[C@@H]2c2ccc3c(c2)CCNC3=O)cnc1N` (single isomer, unassigned) [Compound 988], the IC50 [1] is reported as 50 to 500 nM, the IC50 [2] is reported as 100 to 1000 nM and the MTAP intact/deleted ratio [2] is reported as “A (an IC50 ratio greater than or equal to 10 fold)”. For the same compound, the IC50 [3] was less than 50 nM, the IC50 [4] was greater than 1000 nM and the IC50 [5] was 1000 to 10000 nM. The IC50 [6] was greater than 500 nM.
In the case of `CCc1cc(NC(=O)C(=O)N2C[C@H](C)CC[C@H]2c2ccc(NS(C)(=O)=O)nc2)cnc1N` (single isomer, unassigned) [Compound 995], the IC50 [1] is reported as 50 to 500 nM, the IC50 [2] is reported as 100 to 1000 nM and the MTAP intact/deleted ratio [2] is reported as “A (an IC50 ratio greater than or equal to 10 fold)”. For the same compound, the IC50 [3] was 50 to 500 nM, the IC50 [4] was greater than 1000 nM and the IC50 [5] was greater than 10000 nM. It also gave an IC50 [6] of 50 to 500 nM.
In the case of `Cc1cc(NC(=O)C(=O)N2C[C@@H](C)CC[C@@H]2c2ccc3sc(N)nc3c2)cnc1N` (single isomer, unassigned) [Compound 997], the IC50 [1] is reported as less than 50 nM, the IC50 [2] is reported as less than 100 nM and the MTAP intact/deleted ratio [2] is reported as “B (an IC50 ratio greater than or equal to 3 fold but lower than 10 fold)”. For the same compound, the IC50 [3] was less than 50 nM, the IC50 [4] was less than 100 nM and the IC50 [5] was less than 1000 nM. The IC50 [6] was 50 to 500 nM.
With `Cc1cc(NC(=O)C(=O)N2C[C@@H](C)CC[C@@H]2c2ccc(NS(C)(=O)=O)nc2)cnc1N` (single isomer, unassigned) [Compound 998] the IC50 [1] was greater than 500 nM, the IC50 [2] was greater than 1000 nM and the MTAP intact/deleted ratio [2] was “C (an IC50 ratio of less than 3 fold)”. The IC50 [3] was greater than 500 nM, the IC50 [4] was greater than 1000 nM and the IC50 [5] was greater than 10000 nM. For the same compound, the IC50 [6] was greater than 500 nM.
With `C[C@@H]1CC[C@@H](c2ccc(NS(C)(=O)=O)nc2)N(C(=O)C(=O)Nc2cncc(C(N)=O)c2)C1` (single isomer, unassigned) [Compound 1003] the IC50 [1] was 50 to 500 nM, the IC50 [2] was greater than 1000 nM and the MTAP intact/deleted ratio [2] was “C (an IC50 ratio of less than 3 fold)”. The IC50 [3] was less than 50 nM, the IC50 [4] was greater than 1000 nM and the IC50 [5] was greater than 10000 nM. For the same compound, the IC50 [6] was 50 to 500 nM.
For `COc1ncc(NC(=O)C(=O)N2C[C@@H](C)CC[C@@H]2c2cc3[nH]ncc3s2)cc1C(N)=O` (single isomer, unassigned) [Compound 1006, 2-methoxy-5-(2-(5-methyl-2-(1H-thieno[3,2-c]pyrazol-5-yl)piperidin-1-yl)-2-oxoacetamido)nicotinamide], the IC50 [1] was 50 to 500 nM, the IC50 [2] was less than 100 nM and the MTAP intact/deleted ratio [2] was “A (an IC50 ratio greater than or equal to 10 fold)”. It also gave an IC50 [3] of less than 50 nM, an IC50 [4] greater than 1000 nM and an IC50 [5] of less than 1000 nM. The IC50 [6] was 50 to 500 nM.
With `C[C@@H]1CC[C@@H](c2cc[nH]n2)N(C(=O)C(=O)Nc2cncc(C(N)=O)c2)C1` (single isomer, unassigned) [Compound 1007] the IC50 [1] was greater than 500 nM, the IC50 [2] was greater than 1000 nM and the MTAP intact/deleted ratio [2] was “B (an IC50 ratio greater than or equal to 3 fold but lower than 10 fold)”. The IC50 [3] was greater than 500 nM, the IC50 [4] was greater than 1000 nM and the IC50 [5] was greater than 10000 nM. It also gave an IC50 [6] greater than 500 nM.
In the case of `Cc1cc(NC(=O)C(=O)N2C[C@H](C)CC[C@H]2c2ccc(C(F)F)nc2)cnc1N` (single isomer, unassigned) [Compound 1011], the IC50 [1] is reported as greater than 500 nM, the IC50 [2] is reported as greater than 1000 nM and the MTAP intact/deleted ratio [2] is reported as “C (an IC50 ratio of less than 3 fold)”. It also gave an IC50 [3] greater than 500 nM, an IC50 [4] greater than 1000 nM and an IC50 [5] greater than 10000 nM. It also gave an IC50 [6] greater than 500 nM.
In the case of `Cc1cc(NC(=O)C(=O)N2C[C@@H](C)CC[C@@H]2c2ccc(C(F)(F)F)nc2)cnc1N` (single isomer, unassigned) [Compound 1012], the IC50 [1] is reported as 50 to 500 nM, the IC50 [2] is reported as 100 to 1000 nM and the MTAP intact/deleted ratio [2] is reported as “C (an IC50 ratio of less than 3 fold)”. The IC50 [3] was less than 50 nM, the IC50 [4] was 100 to 1000 nM and the IC50 [5] was 1000 to 10000 nM. For the same compound, the IC50 [6] was 50 to 500 nM.
In the case of `CCc1ccc([C@@H]2CC[C@@H](C)CN2C(=O)C(=O)Nc2cnc(N)c(C)c2)cn1` (single isomer, unassigned) [Compound 1013], the IC50 [1] is reported as 50 to 500 nM, the IC50 [2] is reported as less than 100 nM and the MTAP intact/deleted ratio [2] is reported as “B (an IC50 ratio greater than or equal to 3 fold but lower than 10 fold)”. It also gave an IC50 [3] of less than 50 nM, an IC50 [4] of 100 to 1000 nM and an IC50 [5] of 1000 to 10000 nM. It also gave an IC50 [6] of 50 to 500 nM.
With `Cc1cc(NC(=O)C(=O)N2C[C@H](C)CC[C@H]2c2ccc(N3CCN(C)CC3)nc2)cnc1N` (single isomer, unassigned) [Compound 1014] the IC50 [1] was less than 50 nM, the IC50 [2] was less than 100 nM and the MTAP intact/deleted ratio [2] was “B (an IC50 ratio greater than or equal to 3 fold but lower than 10 fold)”. It also gave an IC50 [3] of less than 50 nM, an IC50 [4] of less than 100 nM and an IC50 [5] of less than 1000 nM. For the same compound, the IC50 [6] was 50 to 500 nM.
In the case of `Cc1cc(NC(=O)C(=O)N2C[C@H](C)CC[C@H]2c2ccc(C(F)(F)F)nc2)cnc1N` (single isomer, unassigned) [Compound 1015], the IC50 [1] is reported as greater than 500 nM, the IC50 [2] is reported as greater than 1000 nM and the MTAP intact/deleted ratio [2] is reported as “C (an IC50 ratio of less than 3 fold)”. For the same compound, the IC50 [3] was greater than 500 nM, the IC50 [4] was greater than 1000 nM and the IC50 [5] was greater than 10000 nM. For the same compound, the IC50 [6] was greater than 500 nM.
With `CCc1ccc([C@H]2CC[C@H](C)CN2C(=O)C(=O)Nc2cnc(N)c(C)c2)cn1` (single isomer, unassigned) [Compound 1016] the IC50 [1] was greater than 500 nM, the IC50 [2] was greater than 1000 nM and the MTAP intact/deleted ratio [2] was “C (an IC50 ratio of less than 3 fold)”. It also gave an IC50 [3] greater than 500 nM, an IC50 [4] greater than 1000 nM and an IC50 [5] greater than 10000 nM. It also gave an IC50 [6] greater than 500 nM.
In the case of `Cc1cc(NC(=O)C(=O)N2C[C@@H](C)CC[C@@H]2c2ccc(N3CCN(C)CC3)nc2)cnc1N` (single isomer, unassigned) [Compound 1017], the IC50 [1] is reported as greater than 500 nM, the IC50 [2] is reported as greater than 1000 nM and the MTAP intact/deleted ratio [2] is reported as “C (an IC50 ratio of less than 3 fold)”. For the same compound, the IC50 [3] was greater than 500 nM, the IC50 [4] was greater than 1000 nM and the IC50 [5] was less than 1000 nM. The IC50 [6] was greater than 500 nM.
For `Cc1cc(NC(=O)C(=O)N2C[C@@H](C)CC[C@@H]2c2ccc(C(F)F)nc2)cnc1N` (single isomer, unassigned) [Compound 1018], the IC50 [1] was 50 to 500 nM, the IC50 [2] was 100 to 1000 nM and the MTAP intact/deleted ratio [2] was “B (an IC50 ratio greater than or equal to 3 fold but lower than 10 fold)”. It also gave an IC50 [3] of less than 50 nM, an IC50 [4] of 100 to 1000 nM and an IC50 [5] of 1000 to 10000 nM. It also gave an IC50 [6] of 50 to 500 nM.
With `Cc1cc(NC(=O)C(=O)N2C[C@@H](C)CC[C@@H]2c2cscn2)cnc1N` (single isomer, unassigned) [Compound 1020] the IC50 [1] was 50 to 500 nM, the IC50 [2] was 100 to 1000 nM and the MTAP intact/deleted ratio [2] was “A (an IC50 ratio greater than or equal to 10 fold)”. It also gave an IC50 [3] of less than 50 nM, an IC50 [4] greater than 1000 nM and an IC50 [5] of 1000 to 10000 nM. The IC50 [6] was greater than 500 nM.
